Literature values, collected in EP3155636B1, “A PROBE FOR EXTRACTION OF MOLECULES OF INTEREST FROM A SAMPLE” (JP Scientific Limited, priority 2014, dated 2015).

Conditions: listed with the MS/MS parameters of 21 WADA controlled substances; source and method not stated

Row | Log P | SMILES
1 | 6.80 | CN(C)CCOc1ccc(/C(=C(/CCCl)c2ccccc2)c2ccccc2)cc1 [Toremifene]
2 | 0.64 | CC(C)(C)NCC(O)c1ccc(O)c(CO)c1 (stereo not drawn) [Salbutamol]
3 | 0.33 | CCN(CC)C(=O)c1cccnc1 [Nikethamide]
4 | 3.70 | C=C1C[C@@H]2[C@H](CC[C@]3(C)C(=O)CC[C@@H]23)[C@@]2(C)C=CC(=O)C=C12 [Exemestane]
5 | 2.14 | CC(C)NCC(O)COc1ccc(COCCOC(C)C)cc1 (stereo not drawn) [Bisoprolol]
6 | 6.29 | Cc1cc(SCc2sc(-c3ccc(C(F)(F)F)cc3)nc2C)ccc1OCC(=O)O [GW501516]
